Measurements from patent US11161817B2, “Quinoline derivative and use thereof as tyrosine kinase inhibitor” (CHONGQING PHARMACEUTICAL INDUSTRIAL RESEARCH INSTITUTE CO. …, priority 2017, dated 2021).
Where two headings read alike, the source gives them in different places.

Experiments:
FGFR4(h) = FGFR4(h) (Homo sapiens, UniProt P22455); test: In vitro kinase activity test, FGFR4(h)
Procedure: (§1) Protein kinase with a corresponding enzyme concentration of X (shown in table 1), peptide substrate with a concentration of Y, ATP with a specific concentration, 8 mM MOPS (pH 7.0), and 10 mM MgCl2 were added. The detection plate was P30 filtermat, and the reaction was performed at room temperature for T minutes, and the reaction system was 10 μL.
(§2) The reaction was terminated by adding 0.5% phosphoric acid to the kinase reaction solution, and the plate was read by an Envision instrument.
(§3) The data were converted into phosphorylation rate and inhibition rate, and subjected to parameter curve-fitting (GraphPad Software) to obtain IC50 data of the compounds.

c-Met = c-Met (Homo sapiens, UniProt P08581); test: In vitro kinase activity test, c-Met
Procedure: as §1, §2, §3

Abl(h) = Abl(h) (Homo sapiens, UniProt P00519); test: In vitro kinase activity test, Abl(h)
Procedure: as §1, §2, §3

FGFR1(h) = FGFR1(h) (Homo sapiens, UniProt P11362); test: In vitro kinase activity test, FGFR1(h)
Procedure: as §1, §2, §3

MINK(h) = MINK(h) (Homo sapiens, UniProt Q8N4C8); test: In vitro kinase activity test, MINK(h)
MINK(h), sequence (Q8N4C8 whole entry): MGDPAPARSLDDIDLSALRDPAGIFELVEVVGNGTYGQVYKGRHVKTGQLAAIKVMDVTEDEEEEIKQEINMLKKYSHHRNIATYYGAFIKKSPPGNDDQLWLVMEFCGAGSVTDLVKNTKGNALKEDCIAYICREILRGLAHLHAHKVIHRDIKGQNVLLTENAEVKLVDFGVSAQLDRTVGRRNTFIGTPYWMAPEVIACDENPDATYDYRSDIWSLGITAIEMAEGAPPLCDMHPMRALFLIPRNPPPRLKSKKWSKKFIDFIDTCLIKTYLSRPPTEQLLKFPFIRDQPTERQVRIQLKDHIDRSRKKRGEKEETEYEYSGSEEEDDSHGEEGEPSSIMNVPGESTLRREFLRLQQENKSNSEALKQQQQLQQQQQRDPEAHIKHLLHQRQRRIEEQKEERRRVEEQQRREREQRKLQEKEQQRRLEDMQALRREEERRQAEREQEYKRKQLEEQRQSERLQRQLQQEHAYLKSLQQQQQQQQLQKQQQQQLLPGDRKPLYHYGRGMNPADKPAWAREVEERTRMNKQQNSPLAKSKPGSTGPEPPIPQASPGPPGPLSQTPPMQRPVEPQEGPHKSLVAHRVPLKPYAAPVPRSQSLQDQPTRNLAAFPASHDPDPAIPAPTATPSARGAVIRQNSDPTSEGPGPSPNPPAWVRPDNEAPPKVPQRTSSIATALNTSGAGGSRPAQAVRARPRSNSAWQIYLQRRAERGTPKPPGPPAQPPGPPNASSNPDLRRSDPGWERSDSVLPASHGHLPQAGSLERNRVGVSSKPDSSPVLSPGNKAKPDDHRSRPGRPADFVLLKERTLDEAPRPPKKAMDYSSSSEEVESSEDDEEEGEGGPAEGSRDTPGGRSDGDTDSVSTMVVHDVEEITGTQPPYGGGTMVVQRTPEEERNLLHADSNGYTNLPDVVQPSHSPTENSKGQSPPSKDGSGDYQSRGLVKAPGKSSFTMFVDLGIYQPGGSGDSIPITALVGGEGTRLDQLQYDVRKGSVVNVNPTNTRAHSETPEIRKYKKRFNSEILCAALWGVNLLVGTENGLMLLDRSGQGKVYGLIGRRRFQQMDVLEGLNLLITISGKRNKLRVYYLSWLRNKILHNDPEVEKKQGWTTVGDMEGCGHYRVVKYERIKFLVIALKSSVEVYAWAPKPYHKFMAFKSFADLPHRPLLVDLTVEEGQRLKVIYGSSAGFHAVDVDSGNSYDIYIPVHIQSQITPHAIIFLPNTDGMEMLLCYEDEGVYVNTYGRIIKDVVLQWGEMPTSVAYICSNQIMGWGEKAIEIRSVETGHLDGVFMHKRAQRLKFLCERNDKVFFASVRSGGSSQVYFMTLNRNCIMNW
Procedure: as §1, §2, §3

PDGFRβ(h) = PDGFRβ(h) (Homo sapiens, UniProt P09619); test: In vitro kinase activity test, PDGFRβ(h)
PDGFRβ(h), sequence (P09619 33-1106): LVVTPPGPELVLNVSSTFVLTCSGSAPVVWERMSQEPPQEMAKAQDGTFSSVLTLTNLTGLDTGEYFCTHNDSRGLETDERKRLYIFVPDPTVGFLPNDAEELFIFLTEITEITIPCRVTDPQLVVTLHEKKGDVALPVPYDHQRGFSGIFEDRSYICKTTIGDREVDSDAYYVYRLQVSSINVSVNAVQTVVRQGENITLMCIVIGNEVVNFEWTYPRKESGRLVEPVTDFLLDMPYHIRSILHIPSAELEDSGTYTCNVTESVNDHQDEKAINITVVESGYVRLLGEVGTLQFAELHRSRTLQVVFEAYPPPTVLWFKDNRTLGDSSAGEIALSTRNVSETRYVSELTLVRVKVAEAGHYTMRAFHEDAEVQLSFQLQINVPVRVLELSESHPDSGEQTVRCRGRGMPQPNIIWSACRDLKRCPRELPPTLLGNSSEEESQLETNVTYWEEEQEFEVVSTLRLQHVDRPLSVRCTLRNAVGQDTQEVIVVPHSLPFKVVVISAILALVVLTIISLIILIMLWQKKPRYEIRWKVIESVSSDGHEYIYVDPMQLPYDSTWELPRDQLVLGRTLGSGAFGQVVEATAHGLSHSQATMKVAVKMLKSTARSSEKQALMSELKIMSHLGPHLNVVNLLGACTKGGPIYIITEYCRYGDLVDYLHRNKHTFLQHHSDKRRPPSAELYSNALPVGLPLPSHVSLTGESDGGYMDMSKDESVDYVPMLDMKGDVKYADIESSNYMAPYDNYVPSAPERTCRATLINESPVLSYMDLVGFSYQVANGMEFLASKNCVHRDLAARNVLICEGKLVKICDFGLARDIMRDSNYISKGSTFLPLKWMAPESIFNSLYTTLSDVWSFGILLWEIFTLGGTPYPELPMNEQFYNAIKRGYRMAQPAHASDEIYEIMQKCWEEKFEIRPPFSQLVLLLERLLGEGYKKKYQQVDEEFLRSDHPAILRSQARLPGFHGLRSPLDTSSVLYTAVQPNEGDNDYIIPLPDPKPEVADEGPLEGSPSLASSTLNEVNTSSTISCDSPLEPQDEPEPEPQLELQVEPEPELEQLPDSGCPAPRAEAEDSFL
Procedure: as §1, §2, §3

cKit(V560G)(h) = cKit(V560G)(h) (Homo sapiens, UniProt P10721, V560G); test: In vitro kinase activity test, cKit(V560G)(h)
Procedure: as §1, §2, §3

Lck(h) = Lck(h) (Homo sapiens, UniProt P06239); test: In vitro kinase activity test, Lck(h)
Lck(h), sequence (P06239 whole entry): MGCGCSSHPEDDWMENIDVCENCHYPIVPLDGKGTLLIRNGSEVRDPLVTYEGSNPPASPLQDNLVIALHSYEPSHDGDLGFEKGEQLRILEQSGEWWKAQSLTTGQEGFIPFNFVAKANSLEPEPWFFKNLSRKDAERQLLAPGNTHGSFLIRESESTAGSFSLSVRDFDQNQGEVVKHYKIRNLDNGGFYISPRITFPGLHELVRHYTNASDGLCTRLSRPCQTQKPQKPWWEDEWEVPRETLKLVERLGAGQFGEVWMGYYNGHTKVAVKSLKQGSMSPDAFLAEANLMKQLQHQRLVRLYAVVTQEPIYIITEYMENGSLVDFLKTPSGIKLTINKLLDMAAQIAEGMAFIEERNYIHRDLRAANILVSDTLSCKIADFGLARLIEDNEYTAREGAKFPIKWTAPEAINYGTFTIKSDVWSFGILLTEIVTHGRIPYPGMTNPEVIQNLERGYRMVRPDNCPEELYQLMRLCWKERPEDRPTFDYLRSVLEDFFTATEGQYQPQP
Procedure: as §1, §2, §3

FGFR3(h) = FGFR3(h) (Homo sapiens, UniProt P22607); test: In vitro kinase activity test, FGFR3(h)
Procedure: as §1, §2, §3

Flt4(h) = Flt4(h) (Homo sapiens, UniProt P35916); test: In vitro kinase activity test, Flt4(h)
Procedure: as §1, §2, §3

FGFR2(h) = FGFR2(h) (Homo sapiens, UniProt P21802); test: In vitro kinase activity test, FGFR2(h)
Procedure: as §1, §2, §3

Flt1(h) = Flt1(h) (Homo sapiens, UniProt P17948); test: In vitro kinase activity test, Flt1(h)
Flt1(h), sequence (P17948 27-1338): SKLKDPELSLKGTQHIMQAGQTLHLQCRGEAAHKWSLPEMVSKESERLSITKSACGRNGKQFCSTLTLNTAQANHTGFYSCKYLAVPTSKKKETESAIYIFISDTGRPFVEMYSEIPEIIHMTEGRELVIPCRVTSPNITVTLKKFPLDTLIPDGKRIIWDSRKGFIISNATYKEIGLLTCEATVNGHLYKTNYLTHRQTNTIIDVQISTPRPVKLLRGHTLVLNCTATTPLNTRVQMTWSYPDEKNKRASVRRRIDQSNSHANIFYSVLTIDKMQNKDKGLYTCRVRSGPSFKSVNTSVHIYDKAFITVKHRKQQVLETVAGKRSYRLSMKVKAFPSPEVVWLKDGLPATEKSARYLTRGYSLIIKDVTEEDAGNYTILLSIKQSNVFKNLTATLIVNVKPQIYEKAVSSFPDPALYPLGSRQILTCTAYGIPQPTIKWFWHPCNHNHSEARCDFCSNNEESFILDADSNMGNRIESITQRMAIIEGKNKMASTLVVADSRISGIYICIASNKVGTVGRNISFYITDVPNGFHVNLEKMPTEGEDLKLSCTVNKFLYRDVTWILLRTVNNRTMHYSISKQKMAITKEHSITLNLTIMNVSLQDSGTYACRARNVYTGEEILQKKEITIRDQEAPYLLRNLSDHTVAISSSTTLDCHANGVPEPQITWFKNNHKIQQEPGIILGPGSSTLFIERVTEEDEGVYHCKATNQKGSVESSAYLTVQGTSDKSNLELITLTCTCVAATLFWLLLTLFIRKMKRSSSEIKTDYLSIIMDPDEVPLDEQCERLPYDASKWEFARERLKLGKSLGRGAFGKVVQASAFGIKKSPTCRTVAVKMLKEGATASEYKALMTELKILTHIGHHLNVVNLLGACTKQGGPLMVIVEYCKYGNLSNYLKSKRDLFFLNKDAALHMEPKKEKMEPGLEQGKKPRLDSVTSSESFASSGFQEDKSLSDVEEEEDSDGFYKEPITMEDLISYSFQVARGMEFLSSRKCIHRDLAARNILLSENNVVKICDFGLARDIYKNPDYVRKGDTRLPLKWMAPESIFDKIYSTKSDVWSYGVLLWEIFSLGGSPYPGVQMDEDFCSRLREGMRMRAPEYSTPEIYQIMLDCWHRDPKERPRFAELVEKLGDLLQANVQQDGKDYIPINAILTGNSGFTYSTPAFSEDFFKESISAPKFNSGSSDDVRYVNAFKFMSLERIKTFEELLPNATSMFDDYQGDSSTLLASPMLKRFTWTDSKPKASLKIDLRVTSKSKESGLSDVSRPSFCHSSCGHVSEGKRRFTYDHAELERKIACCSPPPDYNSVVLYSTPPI
Procedure: as §1, §2, §3

TNIK(h) = TNIK(h) (Homo sapiens, UniProt Q9UKE5); test: In vitro kinase activity test, TNIK(h)
Procedure: as §1, §2, §3

[1] = Pharmacokinetic evaluation in rats, intravenous and oral administration; format: in vivo, SD rats; details: for time to peak concentration / AUC(0-t) / bioavailability / Cmax: male SD rats, intragastric, 5 mg/kg, single; for AUC(0-t) / bioavailability / Cmax: rat, plasma, po; for Cmax: read-out: peak concentration (Cmax)
Procedure: Experimental objective: evaluation of the oral absorption in animals of the product of Embodiment 1 by intravenous and oral administration in rats
Experimental materials: male, SD rats, EDTA-K2
0.5 mg/mL of the test compound suspended in 0.5% Methocel/0.2% Tween 80 was administered intragastrically to male SD rats (overnight fasting, 7-11 week-age) at a dose of 5 mg/kg. About 30 μL blood was collected from the jugular or caudal vein of each animal in the two groups at 0.25, 0.5, 1.0, 2.0, 4.0, 8.0, and 24 hours after administration, added into anticoagulated tubes containing EDTA-K2, and the mixture was centrifuged to obtain the plasma. LC-MS/MS method was used to determine the drug concentration in blood, and WinNonlin™ Version 6.3 (Pharsight, Mountain View, Calif.) pharmacokinetic software was used to calculate the relevant pharmacokinetic parameters by non-compartment model logarithmic trapezoidal method.

[2] = as above; format: in vivo, SD rats; details: for Vd / AUC(0-t) / half-life / clearance: rat, plasma, male SD rats, intravenous injection, 1.0 mg/kg, single; for Vd: read-out: apparent volume of distribution at steady state (Vdss); for AUC(0-t): read-out: area under the plasma concentration-time curve (AUC0-last); for half-life: read-out: elimination half-life (T1/2) (converted); for clearance: read-out: plasma clearance (CL)
cKit(h) = cKit(h) (Homo sapiens, UniProt P10721); test: In vitro kinase activity test, cKit(h)
Procedure: as §1, §2, §3

KDR(h) = KDR(h) (Homo sapiens, UniProt P35968); test: In vitro kinase activity test, KDR(h)
Procedure: as §1, §2, §3

Aurora-A(h) = target: T1, Aurora-A(h) (Homo sapiens, UniProt O14965); test: In vitro kinase activity test, Aurora-A(h)
T1 sequence (O14965 1-403): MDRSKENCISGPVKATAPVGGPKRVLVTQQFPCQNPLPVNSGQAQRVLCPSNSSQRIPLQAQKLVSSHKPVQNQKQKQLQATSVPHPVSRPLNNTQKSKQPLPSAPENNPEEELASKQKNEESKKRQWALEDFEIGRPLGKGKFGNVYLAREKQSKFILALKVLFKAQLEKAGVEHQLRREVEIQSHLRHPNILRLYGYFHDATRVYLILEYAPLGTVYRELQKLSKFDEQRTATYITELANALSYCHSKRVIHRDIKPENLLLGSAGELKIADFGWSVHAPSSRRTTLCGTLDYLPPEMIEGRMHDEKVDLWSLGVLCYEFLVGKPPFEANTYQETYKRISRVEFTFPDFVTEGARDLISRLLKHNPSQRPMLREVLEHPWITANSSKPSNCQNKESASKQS
Procedure: as §1, §2, §3

PDGFRα(h) = PDGFRα(h) (Homo sapiens, UniProt P16234); test: In vitro kinase activity test, PDGFRα(h)
Procedure: as §1, §2, §3

[3] = Pharmacokinetic evaluation in mice, intravenous and oral administration; format: in vivo; details: male Balb/c nude mice, single
Procedure: Experimental objective: evaluation of the oral absorption in animals of the product of Embodiment 1 by intravenous and oral administration in mice
Experimental materials: Balb/c nude mice, EDTA-K2
Experimental procedure: 0.5 mg/mL 5% DMSO/95% (10% HP-β-CD) clear solution of the product of Embodiment 1 was injected intravenously into male Balb/c nude mice (overnight fasting, 7-9 week-age) via caudal vein at a dose of 1 mg/kg. 0.5 mg/mL test compound suspended in 0.5% Methocel/0.2% Tween 80 was administered intragastrically to male Balb/c nude mice (overnight fasting, 7-9 week-age) at a dose of 5 mg/kg. About 30 μL blood was collected from the jugular or caudal vein of each animal in the two groups at 0.25, 0.5, 1.0, 2.0, 4.0, 8.0 and 24 hours after administration, added into anticoagulated tubes containing EDTA-K2, and the mixture was centrifuged to obtain the plasma. LC-MS/MS method was used to determine the drug concentration in blood, and WinNonlin™ Version 6.3 (Pharsight, Mountain View, Calif.) pharmacokinetic software was used to calculate the relevant pharmacokinetic parameters by non-compartment model logarithmic trapezoidal method.

[4] = c-Met kinase activity IC50, Table 3, value 45.6 is from the second test (Note 1)
[5] = rats, intravenous administration

FGFR4(h), sequence (P22455 22-802): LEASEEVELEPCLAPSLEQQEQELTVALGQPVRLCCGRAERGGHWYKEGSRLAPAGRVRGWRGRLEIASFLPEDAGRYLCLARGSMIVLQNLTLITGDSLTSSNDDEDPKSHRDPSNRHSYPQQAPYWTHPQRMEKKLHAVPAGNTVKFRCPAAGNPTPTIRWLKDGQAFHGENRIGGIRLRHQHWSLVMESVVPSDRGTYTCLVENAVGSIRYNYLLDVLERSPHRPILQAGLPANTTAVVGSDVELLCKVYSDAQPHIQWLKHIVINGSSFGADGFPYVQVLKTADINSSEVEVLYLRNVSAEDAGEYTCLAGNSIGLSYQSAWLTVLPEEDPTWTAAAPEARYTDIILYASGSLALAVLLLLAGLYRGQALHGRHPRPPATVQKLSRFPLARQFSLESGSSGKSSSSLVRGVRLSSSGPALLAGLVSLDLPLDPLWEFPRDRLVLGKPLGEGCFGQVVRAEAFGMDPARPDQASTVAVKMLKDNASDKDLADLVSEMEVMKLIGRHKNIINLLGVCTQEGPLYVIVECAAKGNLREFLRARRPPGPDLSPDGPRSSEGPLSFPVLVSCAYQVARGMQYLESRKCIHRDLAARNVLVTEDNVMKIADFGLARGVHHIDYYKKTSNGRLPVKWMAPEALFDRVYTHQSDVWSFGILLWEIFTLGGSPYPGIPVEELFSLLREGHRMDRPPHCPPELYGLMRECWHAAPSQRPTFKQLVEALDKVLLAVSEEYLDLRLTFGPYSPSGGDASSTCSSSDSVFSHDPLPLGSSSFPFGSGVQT

For COc1cc2nccc(Oc3cc(F)c(NC(=O)NC4CC4)cc3F)c2cc1C(N)=O [Comparative Compound 3], the IC50 (FGFR4(h)) was 509 nM, the IC50 (c-Met; [4]) was > 10000 nM and the IC50 (Abl(h)) was 817 nM. It also gave an IC50 (FGFR1(h)) of 160 nM.

In the case of COc1cc2nccc(Oc3cc(Cl)c(NC(=O)NC4CC4)cc3F)c2cc1C(N)=O [Comparative Compound 5], the IC50 (FGFR4(h)) is reported as 137 nM, the IC50 (c-Met; [4]) is reported as 32 nM and the IC50 (Abl(h)) is reported as 207 nM. The IC50 (FGFR1(h)) was 89 nM.

COc1cc2nccc(Oc3ccc(NC(=O)NC4CC4)c(F)c3)c2cc1C(N)=O [Comparative Compound 6] showed an IC50 (FGFR4(h)) of 4560 nM, an IC50 (c-Met; [4]) of 282 nM and an IC50 (Abl(h)) of 2210 nM. It also gave an IC50 (FGFR1(h)) of 1740 nM.

For COc1cc2nccc(Oc3ccc(NC(=O)NC4CC4)c(Cl)c3)c2cc1C(N)=O [Comparative Compound 1, Lovatinib], the IC50 (MINK(h)) was 359 nM, the IC50 (PDGFRβ(h)) was 275 nM and the IC50 (cKit(V560G)(h)) was 596 nM. It also gave an IC50 (Lck(h)) of 69 nM, an IC50 (FGFR4(h)) of 1120 nM and an IC50 (FGFR3(h)) of 132 nM. It also gave an IC50 (Flt4(h)) of 3 nM, an IC50 (FGFR2(h)) of 14 nM and an IC50 (c-Met; c-Met IC50, Table 2, ATP 10 μM) of 598 nM. It also gave an IC50 (Flt1(h)) of 13 nM, an IC50 (TNIK(h)) of 91 nM and an IC50 (FGFR1(h)) of 76.6 nM. The “time to peak concentration” value [1] was 1.25 h, the AUC(0-t) [1] was 44.5 µM·h and the bioavailability [1] was 58.7%. For the same molecule, the Cmax [1] was 10.1 µM, the Vd [2] was 0.407 L/kg and the AUC(0-t) [2] was 15.1 µM·h. The half-life [2] was 2.53 h, the clearance [2] was 2.6 mL/min/kg and the IC50 (cKit(h)) was 78 nM.

COc1cc2nccc(Oc3ccc(NC(=S)NC4CC4)c(Cl)c3F)c2cc1C(N)=O [Comparative Compound 2] gave an IC50 (KDR(h); read-out: KDR(h) IC50, Table 2, ATP 10 μM) of 7 nM, an IC50 (MINK(h); read-out: MINK(h) IC50, Table 2, ATP 10 μM) of 55 nM and an IC50 (PDGFRβ(h); read-out: PDGFRβ(h) IC50, Table 2, ATP 10 μM) of 31 nM. For the same molecule, the IC50 (Lck(h); read-out: Lck(h) IC50, Table 2, ATP 10 μM) was 252 nM, the IC50 (Flt4(h)) was 8 nM and the IC50 (FGFR2(h)) was 15 nM. It also gave an IC50 (Flt1(h); read-out: Flt1(h) IC50, Table 2, ATP 10 μM) of 31 nM, an IC50 (Aurora-A(h); read-out: Aurora-A(h) IC50, Table 2, ATP 10 μM) of 262 nM and an IC50 (TNIK(h); read-out: TNIK(h) IC50, Table 2, ATP 10 μM) of 118 nM. The IC50 (FGFR1(h); read-out: FGFR1(h) IC50, Table 2, ATP 5 μM) was 69 nM.

With COc1cc2nccc(Oc3cc(F)c(NC(=O)NC4CC4)c(Cl)c3)c2cc1C(N)=O [Comparative Compound 7] the IC50 (FGFR4(h)) was 1110 nM, the IC50 (c-Met; [4]) was > 10000 nM and the IC50 (FGFR1(h)) was 54 nM.

For COc1cc2nccc(Oc3ccc(NC(=O)NC4CC4)c(Cl)c3F)c2cc1C(N)=O [Embodiment 1B], the IC50 (KDR(h)) was 9 nM, the IC50 (MINK(h)) was 48 nM and the IC50 (PDGFRβ(h)) was 226 nM. The IC50 (cKit(V560G)(h)) was 262 nM, the IC50 (Lck(h)) was 43 nM and the IC50 (FGFR4(h)) was 92 nM. For the same molecule, the “activity on FGFR4 increased, compared with Comparative Compound 1” value (FGFR4(h); from Table 2) was 12 times, the IC50 (FGFR3(h)) was 26 nM and the “activity on FGFR3 increased, compared with Comparative Compound 1” value (FGFR3(h); from Table 2) was 5 times. For the same molecule, the IC50 (Flt4(h)) was 3 nM, the IC50 (FGFR2(h)) was 6 nM and the “activity on FGFR2 increased, compared with Comparative Compound 1” value (FGFR2(h); from Table 2) was 2 times. For the same molecule, the IC50 (PDGFRα(h)) was 120 nM, the IC50 (c-Met; c-Met IC50, Table 2, ATP 10 μM) was 99.8 nM and the IC50 (c-Met; [4]) was 45.6 nM. For the same molecule, the “activity on c-Met increased, compared with Comparative Compound 1” value (c-Met; from Table 2) was 5 times, the IC50 (Flt1(h)) was 10 nM and the IC50 (Aurora-A(h)) was 2080 nM. The IC50 (Abl(h)) was 7 nM, the “activity on ABL improved, compared with Comparative Compound 2” value (Abl(h); from Table 2) was ~70 times and the “activity on ABL increased, compared with Comparative Compound 1” value (Abl(h); from Table 2) was 5 times. The IC50 (TNIK(h)) was 14 nM, the “activity on TNIK improved, compared with Comparative Compound 2” value (TNIK(h); from Table 2) was 8 times and the “activity on TNIK increased, compared with Comparative Compound 1” value (TNIK(h); from Table 2) was 6.5 times. The IC50 (FGFR1(h)) was 9 nM, the “activity on FGFR1 increased, compared with Comparative Compound 1” value (FGFR1(h); from Table 2) was 8 times and the IC50 (cKit(h)) was 68 nM.

In the case of COc1cc2nccc(Oc3ccc(NC(=O)NC4CC4)c(Cl)c3F)c2cc1C(N)=O [Embodiment 1], the “time to peak concentration” value ([3]; intragastric, 5 mg/kg) is reported as 0.5 h, the bioavailability ([3]; mouse, plasma, po, intragastric, 5 mg/kg) is reported as 144% and the AUC(0-t) ([3]; mouse, plasma, po, intragastric, 5 mg/kg, read-out: AUC0-last) is reported as 24.9 µM·h. The Cmax ([3]; mouse, plasma, po, intragastric, 5 mg/kg, read-out: peak concentration (Cmax)) was 9.83 µM, the Vd ([3]; mouse, plasma, intravenous injection, 1.0 mg/kg, read-out: apparent volume of distribution at steady state (Vdss)) was 1.48 L/kg and the AUC(0-t) ([3]; mouse, plasma, intravenous injection, 1.0 mg/kg, read-out: area under the plasma concentration-time curve (AUC0-last)) was 3.21 µM·h. The half-life ([3]; mouse, plasma, intravenous injection, 1.0 mg/kg, read-out: elimination half-life (T1/2) (converted)) was 2.68 h, the clearance ([3]; mouse, plasma, intravenous injection, 1.0 mg/kg, read-out: plasma clearance (CL)) was 11 mL/min/kg and the “time to peak concentration” value [1] was 0.375 h. The AUC(0-t) [1] was 71.1 µM·h, the bioavailability [1] was 60.8% and the Cmax [1] was 19.6 µM. The “AUC0-last increased, compared with Comparative Compound 1” value ([1]; rats, oral absorption) was 27%, the Vd [2] was 0.259 L/kg and the AUC(0-t) [2] was 23.4 µM·h. For the same molecule, the half-life [2] was 2.64 h, the clearance [2] was 1.6 mL/min/kg and the “AUC0-last increased, compared with Comparative Compound 1” value [2, 5] was 55%. For the same molecule, the “plasma clearance reduced, compared with Comparative Compound 1” value [2, 5] was ~38%.

For COc1cc2nccc(Oc3ccc(NC(=O)NC4CC4)c(F)c3F)c2cc1C(N)=O [Comparative Compound 4], the IC50 (FGFR4(h)) was 108 nM, the IC50 (c-Met; [4]) was 79.8 nM and the IC50 (Abl(h)) was 292 nM. For the same molecule, the IC50 (FGFR1(h)) was 31 nM.
